Each structure is given as a SMILES string.

The target of the experiment is T1, Ba/F3-Tel-KDR cells (Homo sapiens, UniProt P35968).
T1 construct: fused on or other part: N-terminal oligomerising part of TEL (ETV6) fused to the tyrosine kinase domain of KDR; P41212 (Transcription factor ETV6)
T1 sequence (P35968 whole entry, change not shown, the tested form may be a part): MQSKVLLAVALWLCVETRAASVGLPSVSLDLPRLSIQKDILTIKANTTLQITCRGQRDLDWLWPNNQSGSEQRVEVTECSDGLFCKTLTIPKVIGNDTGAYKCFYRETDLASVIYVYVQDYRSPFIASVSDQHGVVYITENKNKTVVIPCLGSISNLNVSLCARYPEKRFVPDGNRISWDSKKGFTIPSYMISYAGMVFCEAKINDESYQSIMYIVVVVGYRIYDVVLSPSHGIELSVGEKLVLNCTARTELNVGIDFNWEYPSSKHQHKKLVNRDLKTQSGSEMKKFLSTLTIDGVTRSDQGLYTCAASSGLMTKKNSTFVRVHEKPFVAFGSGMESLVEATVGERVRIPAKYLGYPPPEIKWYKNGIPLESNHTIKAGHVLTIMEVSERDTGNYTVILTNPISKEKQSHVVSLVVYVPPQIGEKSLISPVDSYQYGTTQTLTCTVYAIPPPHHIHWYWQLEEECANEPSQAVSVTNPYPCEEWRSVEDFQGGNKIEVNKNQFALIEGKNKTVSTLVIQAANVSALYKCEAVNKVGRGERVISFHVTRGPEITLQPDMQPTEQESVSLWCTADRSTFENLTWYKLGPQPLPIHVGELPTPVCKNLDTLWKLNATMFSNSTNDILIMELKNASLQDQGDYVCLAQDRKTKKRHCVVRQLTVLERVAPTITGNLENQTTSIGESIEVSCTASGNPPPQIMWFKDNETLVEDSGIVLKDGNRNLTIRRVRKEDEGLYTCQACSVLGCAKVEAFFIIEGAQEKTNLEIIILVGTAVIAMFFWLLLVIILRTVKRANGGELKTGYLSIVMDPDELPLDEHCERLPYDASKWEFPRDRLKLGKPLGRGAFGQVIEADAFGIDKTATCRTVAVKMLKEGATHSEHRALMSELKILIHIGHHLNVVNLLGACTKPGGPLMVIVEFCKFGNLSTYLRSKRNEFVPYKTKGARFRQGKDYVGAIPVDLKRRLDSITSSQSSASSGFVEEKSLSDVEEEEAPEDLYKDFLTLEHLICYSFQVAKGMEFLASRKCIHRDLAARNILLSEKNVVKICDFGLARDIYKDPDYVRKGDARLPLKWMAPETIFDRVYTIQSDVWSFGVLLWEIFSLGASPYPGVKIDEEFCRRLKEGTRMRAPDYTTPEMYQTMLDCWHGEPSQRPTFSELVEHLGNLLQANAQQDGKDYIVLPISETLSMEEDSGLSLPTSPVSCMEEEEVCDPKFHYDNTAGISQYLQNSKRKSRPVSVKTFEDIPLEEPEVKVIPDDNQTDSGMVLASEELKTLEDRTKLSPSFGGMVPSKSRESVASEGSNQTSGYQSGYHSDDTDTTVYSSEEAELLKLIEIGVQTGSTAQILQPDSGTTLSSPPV
The experiment can be described thus: Ba/F3-Tel-KDR cell viability inhibition assay (CellTiter-Glo). In kind it is cell-based. The settings on record: 48 hour incubation, read-out: IC50 (the source's name). The text has this:
This assay is a cell-based assay to measure the compound-mediated suppression of Ba/F3 cell proliferation and viability using the Luciferase bioluminescent assay commercially known as CellTiter-Glo™. In this case, a specifically modified cell line, Ba/F3-Tel-KDR is used. These cells are engineered such that intact signaling through the tyrosine kinase domain of KDR is critical for their survival. Inhibition of KDR signaling results in cell death which is quantitated using a cell viability assay. This is a homogeneous bioluminescent assay that yields a rapid, simple and sensitive determination of the number of viable cells in culture by generation of a luminescent signal proportional to the amount of ATP present in cells. KDR inhibitor compound dilutions are incubated with Ba/F3-Tel-KDR cells over a 48 hour period and the resulting cell viability is measured with a suitable luminometer.
This assay is performed in Ba/F3-Tel-KDR cells. Cells are cultured at 37° C. […] Medium is changed the day before the experiment. On Day 1, cells are plated into white solid bottom 384-well plates at 5000 cells/well in 25 μl culture medium. A ten-point dose response curve is prepared as follows: compounds are first serially diluted 3-fold in 100% DMSO, starting from 10 mM. […] 5 μl of diluted compound is added to cell plates with 25 μl culture medium. […] The final concentration of DMSO is 0.1%. Wells without or with cells plus 0.1% DMSO serve as controls. On Day 3, Lyophilized CellTiter-Glo buffer and substrate and the cell plates are first equilibrated to room temperature. Substrate is reconstituted in buffer and 30 μl reconstituted substrate is added to each well. After incubation for 10 minutes at room temperature, plates are read in a luminometer. Compounds are tested in a 10-point dose response and each concentration is run in triplicate on a given plate. Each plate is run in duplicate.
Consider `CNC(=O)C1Cc2c(ncnc2Oc2ccc3c(ccn3C(=O)Nc3cc(C4CC4)on3)c2)CN1` (racemic) [Example 148-G, (±)-4-[1-(5-Cyclopropyl-isoxazol-3-ylcarbamoyl)-1H-indol-5-yloxy]-5,6,7,8-tetrahydro-pyrido[3,4-d]pyrimidine-6-carboxylic acid methylamide], for which the GI50 was determined as 88 nM.

Regarding `CC(=O)N1CC2C[C@H]1CN2Cc1cc(Oc2ccc3c(ccn3C(=O)Nc3cccc(C(F)(F)F)c3)c2)ncn1` (stereo in doubt) [Example 98-B, 5-[6-((1R,4S)-5-Acetyl-2,5-diaza-bicyclo[2.2.1]hept-2-ylmethyl)-pyrimidin-4-yloxy]-indole-1-carboxylic acid (3-trifluoromethyl-phenyl)-amide], the GI50 was under 1 nM.

Take `CNCc1cc(Oc2ccc3c(cc(C)n3C(=O)Nc3cccc(C(F)(F)F)c3)c2F)ncn1` [Example 19-AP]: the GI50 was found to be 430 nM.

As to `O=C(Nc1cccc(C(F)(F)F)c1)n1ccc2cc(Oc3cc(CN4CCCC4)ncn3)ccc21` [Example 19-K], the GI50 was determined as 222 nM.

As for `O=C(Nc1ccc(F)c(C(F)(F)F)c1)n1ccc2cc(Oc3cc(CNC4CC4)ncn3)ccc21` [Example 19-Y], the GI50 was 23 nM.

Take `COCc1cc(Oc2ccc3c(ccn3C(=O)Nc3ccc(F)c(C(F)(F)F)c3)c2)ncn1` [Example 20-C]: the GI50 stood at 6 nM.

On to `O=C(Nc1cccc(C(F)(F)F)c1)n1ccc2cc(Oc3ccnc(CO)c3)ccc21` [Example 25-D, 5-(2-Hydroxymethyl-pyridin-4-yloxy)-indole-1-carboxylic acid (3-trifluoromethylphenyl)-amide], for which the GI50 was determined as 3 nM.

On to `O=C(Nc1ccc(F)c(C(F)(F)F)c1)n1ccc2cc(Oc3cc(Cn4ncnn4)ncn3)ccc21` [Example 27-A], for which the GI50 is 5 nM.

Turning to `Cc1nnn(Cc2cc(Oc3ccc4c(ccn4C(=O)Nc4ccc(F)c(C(F)(F)F)c4)c3)ncn2)n1` [Example 27-I], the GI50 is under 1 nM.

As to `CNC(=O)c1cc(Oc2ccc3c(ccn3C(=O)Nc3cccc(C(F)(F)F)c3)c2)ccn1` [Example 28-B, 5-(2-Methylcarbamoyl-pyridin-4-yloxy)-indole-1-carboxylic acid (3-trifluoromethyl-phenyl)-amide], the GI50 stood at 11 nM.

`O=C(Nc1ccc(F)c(C(F)(F)F)c1)n1ccc2cc(Oc3ncnc4c3CCNC4)ccc21` [Example 33-D]: the GI50 was determined as 189 nM.

Take `O=C(Nc1cccc(C(F)(F)F)c1)n1ccc2c(F)c(Oc3ncnc4c3CCNC4)ccc21` [Example 33-E]: the GI50 worked out at 9 nM.

Consider `O=C(Nc1cc(F)cc(C(F)(F)F)c1)n1ccc2cc(Oc3ncnc4c3CCNC4)ccc21` [Example 33-H], for which the GI50 worked out at 330 nM.

As for `Cc1cc2cc(Oc3ncnc4c3CCNC4)ccc2n1C(=O)Nc1cccc(C(F)(F)F)c1` [Example 33-L], the GI50 was found to be 87 nM.

As for `CS(=O)(=O)N1CCc2c(ncnc2Oc2ccc3c(ccn3C(=O)Nc3cccc(C(F)(F)F)c3)c2)C1` [Example 35, 5-(7-Methanesulfonyl-5,6,7,8-tetrahydro-pyrido[3,4-d]pyrimidin-4-yloxy)-indole-1-carboxylic acid (3-trifluoromethyl-phenyl)-amide], the GI50 was 13 nM.

Consider `CS(=O)(=O)NC1CCN(Cc2cc(Oc3ccc4c(ccn4C(=O)Nc4cccc(C(F)(F)F)c4)c3)ncn2)CC1` [Example 39, 5-[6-(4-Methanesulfonylamino-piperidin-1-ylmethyl)-pyrimidin-4-yloxy]-indole-1-carboxylic acid (3-trifluoromethyl-phenyl)-amide], for which the GI50 was 2 nM.

For the compound `CCN(CC)CCC(=O)N1CCc2c(ncnc2Oc2ccc3c(ccn3C(=O)Nc3cccc(C(F)(F)F)c3)c2)C1` [Example 40, 5-[7-(3-Diethylamino-propionyl)-5,6,7,8-tetrahydro-pyrido[3,4-d]pyrimidin-4-yloxy]-indole-1-carboxylic acid (3-trifluoromethyl-phenyl)-amide], the GI50 amounted to 13 nM.

Turning to `O=C(Nc1cccc(C(F)(F)F)c1F)n1ccc2cc(Oc3ncnc4c3CNC4)ccc21` [Example 45-G], the GI50 was determined as 3 nM.

As for `CC(C)(CO)c1cc(NC(=O)n2ccc3cc(Oc4ncnc5c4CCNC5)ccc32)[nH]n1` [Example 49-B, 5-(5,6,7,8-Tetrahydro-pyrido[3,4-d]pyrimidin-4-yloxy)-indole-1-carboxylic acid [5-(2-hydroxy-1,1-dimethyl-ethyl)-2H-pyrazol-3-yl]-amide], the GI50 amounted to 22 nM.

`O=C(Nc1cc(-c2ccccc2)[nH]n1)n1ccc2cc(Oc3ncnc4c3CCNC4)ccc21` [Example 51-D]: the GI50 stood at 11 nM.

For the compound `C[C@H]1Cc2c(ncnc2Oc2ccc3c(ccn3C(=O)Nc3cc(C4(C)CC4)n[nH]3)c2F)CN1` [Example 54-H], the GI50 is 1 nM.

`C[C@@H]1Cc2c(ncnc2Oc2ccc3c(ccn3C(=O)Nc3cc(C4(C)CC4)n[nH]3)c2F)CN1` [Example 54-I]: the GI50 was under 1 nM.

On to `C[C@H]1Cc2c(ncnc2Oc2ccc3c(ccn3C(=O)Nc3ccn(C(C)(C)C)n3)c2)CN1` [Example 54-V], for which the GI50 amounted to 63 nM.

As for `O=C(Nc1cncc(C(F)(F)F)c1)n1ccc2cc(Oc3ncnc4c3CCNC4)ccc21` [Example 55-B, 5-(5,6,7,8-Tetrahydro-pyrido[3,4-d]pyrimidin-4-yloxy)-indole-1-carboxylic acid (5-trifluoromethyl-pyridin-3-yl)-amide], the GI50 is 107 nM.

For the compound `Cc1cc2cc(Oc3ncnc4c3CNC4)ccc2n1C(=O)Nc1cc(C(C)(C)C)on1` [Example 57-C, 5-(6,7-dihydro-5H-pyrrolo[3,4-d]pyrimidin-4-yloxy)-2-methyl-indole-1-carboxylic acid (5-tert-butyl-isoxazol-3-yl)-amide], the GI50 is under 1 nM.

On to `CC(C)Cc1cc(NC(=O)n2ccc3cc(Oc4ncnc5c4CNC5)ccc32)no1` [Example 57-N, 5-(6,7-dihydro-5H-pyrrolo[3,4-d]pyrimidin-4-yloxy)-indole-1-carboxylic acid (5-isobutyl-isoxazol-3-yl)-amide], for which the GI50 was 91 nM.

Regarding `CNCc1cc(Oc2ccc3c(ccn3C(=O)Nc3cc(C(C)(C)C)[nH]n3)c2)ncn1` [Example 59-B, 5-(6-Methylaminomethyl-pyrimidin-4-yloxy)-indole-1-carboxylic acid (5-tert-butyl-2H-pyrazol-3-yl)-amide], the GI50 was found to be 4 nM.

In the case of `CNCc1cc(Oc2ccc3c(ccn3C(=O)Nc3cc(C(F)(F)F)[nH]n3)c2F)ncn1` [Example 59-C, 4-Fluoro-5-(6-methylaminomethyl-pyrimidin-4-yloxy)-indole-1-carboxylic acid (5-trifluoromethyl-1H-pyrazol-3-yl)-amide], the GI50 came to 114 nM.

For the compound `CN1Cc2ncnc(Oc3ccc4c(ccn4C(=O)Nc4cccc(C(F)(F)F)c4)c3)c2C1` [Example 63-A, 5-(6-methyl-6,7-dihydro-5H-pyrrolo[3,4-d]pyrimidin-4-yloxy)-indole-1-carboxylic acid (3-trifluoromethyl-phenyl)-amide], the GI50 is 8 nM.

Turning to `O=C(Nc1cccc(C(F)(F)F)c1)n1ccc2cc(Oc3ncnc4c3CN(CCO)C4)ccc21` [Example 64-A, 5-[6-(2-Hydroxy-ethyl)-6,7-dihydro-5H-pyrrolo[3,4-d]pyrimidin-4-yloxy]-indole-1-carboxylic acid (3-trifluoromethyl-phenyl)-amide], the GI50 came to 8 nM.

As for `O=C(Nc1cccc(C(F)(F)F)c1)N1CCc2cc(Oc3cc(CN4CCOCC4)ncn3)ccc21` [Example 68-F], the GI50 was 8 nM.

For the compound `O=C(Nc1cccc(C(F)(F)F)c1)n1ccc2cc(Oc3ccnc(CCN4CCOCC4)n3)ccc21` [Example 73-D, 5-(2-(2-morpholinoethyl)pyrimidin-4-yloxy)-N-(3-(trifluoromethyl)phenyl)-1H-indole-1-carboxamide], the GI50 amounted to 9 nM.

Turning to `CNCc1cc(Oc2ccc3c(ccn3C(=O)Nc3ccc(OC)c(C(F)(F)F)c3)c2)ncn1` [Example 76-E, N-(4-methoxy-3-(trifluoromethyl)phenyl)-5-(6-((methylamino)methyl)pyrimidin-4-yloxy)-1H-indole-1-carboxamide], the GI50 is under 1 nM.

Consider `CS(=O)(=O)Cc1cc(Oc2ccc3c(ccn3C(=O)Nc3ccc(F)c(C(F)(F)F)c3)c2)ncn1` [Example 86-A, N-(4-fluoro-3-(trifluoromethyl)phenyl)-5-(6-(methylsulfonylmethyl)pyrimidin-4-yloxy)-1H-indole-1-carboxamide], for which the GI50 is under 1 nM.

Turning to `CS(=O)(=O)Cc1cc(Oc2ccc3c(ccn3C(=O)Nc3cccc(C(F)(F)F)c3)c2F)ncn1` [Example 87-E, 4-Fluoro-5-(6-methanesulfonylmethyl-pyrimidin-4-yloxy)-indole-1-carboxylic acid (3-trifluoromethyl-phenyl)-amide], the GI50 stood at 7 nM.
